Assays:
[1] = biological target: T1, hOCT2 (Homo sapiens, UniProt O15244); assay: Substrates uptake assay, S2-OCT2 cells (14C-TEA); assay type: in vitro ADME; details: inhibitor 600 μM
T1 construct: host or cells: S2-OCT2
T1 sequence (O15244 1-555): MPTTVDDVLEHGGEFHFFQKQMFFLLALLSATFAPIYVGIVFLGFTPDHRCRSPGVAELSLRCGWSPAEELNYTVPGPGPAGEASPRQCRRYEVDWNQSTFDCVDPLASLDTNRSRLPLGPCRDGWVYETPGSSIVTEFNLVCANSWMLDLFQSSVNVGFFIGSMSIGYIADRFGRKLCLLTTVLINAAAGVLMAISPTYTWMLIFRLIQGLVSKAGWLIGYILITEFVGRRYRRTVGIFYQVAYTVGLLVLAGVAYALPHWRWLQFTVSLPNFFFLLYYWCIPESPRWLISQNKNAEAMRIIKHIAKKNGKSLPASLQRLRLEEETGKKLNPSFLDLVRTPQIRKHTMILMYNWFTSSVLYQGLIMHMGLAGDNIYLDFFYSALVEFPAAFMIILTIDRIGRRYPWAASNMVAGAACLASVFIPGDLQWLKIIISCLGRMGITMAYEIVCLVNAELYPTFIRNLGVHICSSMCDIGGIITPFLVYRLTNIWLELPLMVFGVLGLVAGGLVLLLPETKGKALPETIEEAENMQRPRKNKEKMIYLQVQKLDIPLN
Source text: (§1) Drug transporters mediate the cellular uptake and efflux of their substrates. Therefore, cell lines overexpressing a drug transporter can be utilized to investigate inhibitors of the transporter by assessing changes in substrate uptake. For each drug transporter, we selected a well-characterized inhibitor as the positive control. Radiolabeled substrates were used to indicate the decrease in transport efficiency when the drug transporters were inhibited by PDQ or the control inhibitors.
(§2) The concentrations of the control drugs and the substrates were stated in the assay details. Working solutions of the control inhibitors, the radiolabeled substrates, and each dose of PDQ were prepared at 200 times (200×) more concentrated solutions with DMSO for further dilution.
(§3) Transporter-overexpressed cell lines. Human organic anion transporter-overexpressed cell lines MDCKII-OAT1 and S2-OAT3, human organic anion transport polypeptide-overexpressed cell lines HEK293A-OATP1B1 and HEK293A-OATP1B3, human organic cation transporter 2-overexpressed cell line S2-OCT2, and human multi-drug resistance protein MDR1 (or P-gp)-overexpressed cell line MDCKII-MDR1 were gifts from Japan Fuji Biomedical Co., Ltd. (Fuji, Shizuoka Prefecture, Japan). Breast cancer resistance protein-overexpressed vesicles (sf9-BCRP vesicle) were purchased from GenoMembrane Co., Ltd. (Yokohama, Kanagawa, Japan).
(§4) Substrates uptake assay. In this assay, we studied the inhibition of PDQ against transporters OAT1, OAT3, OCT2, OATP1B1 and OATP1B3 with MDCKII-OAT1, S2-OAT3, S2-OCT2, HEK293A-OATP1B1and HEK293A-OATP1B3 cells, respectively. The radiolabeled substrates for OAT1, OAT3, OATP1B1, OATP1B3 and OCT2 were […], respectively (Table 5). Probenecid ([…]) was the positive control inhibitor of OAT1 and OAT3, while rifampicin ([…]) served as the control drug of OATP1B1 and OATP1B3. For OCT2, we used […] cimetidine to compare with the inhibitory effect of PDQ. Two times (2×) more concentrated working solutions of the drugs and the substrate were prepared with Dulbecco’s phosphate-buffered saline (DPBS, Gibco, Grand Island, NY, USA.). Then, an equal volume of 2× drug solution and 2× radiolabeled substrate solution were mixed as the working mix. All reagents were pre-warmed to 37 °C.
(§5) The cells were digested with 0.05% trypsin/EDTA. The density of the single-cell suspension was adjusted to 2.0 × 10^5 cells/mL for S2 cells and to 1.5 × 10^5 cells/mL for MDCK II and HEK293A cells. The cell suspension was then added to the reservoirs of the 24-well plate for culture until full confluency. The medium in the wells was removed, and the wells were washed with DPBS. Then, the plate was incubated for 10 min with pre-warmed DPBS in the wells. After removing DPBS, […] of working mix was added to each well to initiate the substrate uptake process. The reaction time was 5 min for S2-OCT2 cells, while the other four types of cells were incubated with the reaction mix for 2 min. Cold DPBS was used to terminate the substrate transportation. To each well, […] NaOH ([…]) was added to lyse the cells. Then, […] cell lysate was transferred to the counting vials, and 3 mL scintillation cocktail (Aquasol-2, PerkinElmer, Waltham, MA, USA) was added. […] Each sample was replicated three times (N = 3).
(§6) In = [100 × (U − U0)/(Uc − U0)]%(3)
(§7) The results were expressed as mean ± standard deviation (SD) and analyzed with GraphPad Prism 8.0 software (CA, USA). The IC50 of PDQ was curve-fitted with the FORECAST function. Statistical significance was calculated using a two-tailed test, and a p value < 0.05 was considered as significant.

[2] = system: CYP2C9; parameters: method as in PMID 30078466; details: cited from earlier work
[3] = biological target: T2, hOAT3 (Homo sapiens, UniProt Q8TCC7); assay: Substrates uptake assay, S2-OAT3 cells (3H-ES); assay type: in vitro ADME; details: inhibitor 100 μM
T2 sequence (Q8TCC7 1-542): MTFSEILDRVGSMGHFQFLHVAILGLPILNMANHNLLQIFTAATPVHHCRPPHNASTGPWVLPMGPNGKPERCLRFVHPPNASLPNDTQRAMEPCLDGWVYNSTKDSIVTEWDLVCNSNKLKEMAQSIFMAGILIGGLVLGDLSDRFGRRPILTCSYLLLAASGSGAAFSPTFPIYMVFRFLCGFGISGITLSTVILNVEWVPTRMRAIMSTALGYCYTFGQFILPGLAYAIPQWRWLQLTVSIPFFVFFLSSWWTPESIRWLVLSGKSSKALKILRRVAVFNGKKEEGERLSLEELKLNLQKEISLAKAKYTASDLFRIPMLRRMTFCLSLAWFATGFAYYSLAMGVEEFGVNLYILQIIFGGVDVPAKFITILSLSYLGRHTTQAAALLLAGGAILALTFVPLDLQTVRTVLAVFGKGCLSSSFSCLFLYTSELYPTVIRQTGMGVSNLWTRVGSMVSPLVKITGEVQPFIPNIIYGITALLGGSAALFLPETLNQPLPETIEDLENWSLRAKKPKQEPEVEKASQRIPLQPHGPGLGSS
Source text: as §1, §2, §3, §4, §5, §6, §7

[4] = biological target: T3, hOATP1B3 (Homo sapiens, UniProt Q9NPD5); assay: Substrates uptake assay, HEK293A-OATP1B3 cells (3H-EG); assay type: in vitro ADME; details: inhibitor 60 μM
T3 sequence (Q9NPD5 1-702): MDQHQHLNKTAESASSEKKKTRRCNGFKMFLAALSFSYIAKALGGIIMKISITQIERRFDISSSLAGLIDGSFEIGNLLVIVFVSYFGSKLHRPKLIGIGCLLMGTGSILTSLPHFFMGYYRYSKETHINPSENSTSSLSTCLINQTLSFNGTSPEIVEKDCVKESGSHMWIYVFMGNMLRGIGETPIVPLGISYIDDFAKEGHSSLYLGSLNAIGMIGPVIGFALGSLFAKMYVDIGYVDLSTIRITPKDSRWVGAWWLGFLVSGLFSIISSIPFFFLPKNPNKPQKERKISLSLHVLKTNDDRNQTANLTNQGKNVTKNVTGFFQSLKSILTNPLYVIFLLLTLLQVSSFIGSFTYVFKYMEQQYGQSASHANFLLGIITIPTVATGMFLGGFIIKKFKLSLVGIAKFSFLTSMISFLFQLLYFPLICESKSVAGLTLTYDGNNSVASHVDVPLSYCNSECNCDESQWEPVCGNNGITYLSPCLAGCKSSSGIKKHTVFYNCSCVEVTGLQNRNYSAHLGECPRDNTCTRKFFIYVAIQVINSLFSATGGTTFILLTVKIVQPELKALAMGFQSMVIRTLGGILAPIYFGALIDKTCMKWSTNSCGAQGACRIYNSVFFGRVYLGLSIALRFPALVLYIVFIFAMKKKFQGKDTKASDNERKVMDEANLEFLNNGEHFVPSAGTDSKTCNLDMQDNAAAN
Source text: as §1, §2, §3, §4, §5, §6, §7

[5] = biological target: T4, hOATP1B1 (Homo sapiens, UniProt Q9Y6L6); assay: Substrates uptake assay, HEK293A-OATP1B1 cells (3H-ES); assay type: in vitro ADME; details: inhibitor 60 μM
T4 sequence (Q9Y6L6 1-691): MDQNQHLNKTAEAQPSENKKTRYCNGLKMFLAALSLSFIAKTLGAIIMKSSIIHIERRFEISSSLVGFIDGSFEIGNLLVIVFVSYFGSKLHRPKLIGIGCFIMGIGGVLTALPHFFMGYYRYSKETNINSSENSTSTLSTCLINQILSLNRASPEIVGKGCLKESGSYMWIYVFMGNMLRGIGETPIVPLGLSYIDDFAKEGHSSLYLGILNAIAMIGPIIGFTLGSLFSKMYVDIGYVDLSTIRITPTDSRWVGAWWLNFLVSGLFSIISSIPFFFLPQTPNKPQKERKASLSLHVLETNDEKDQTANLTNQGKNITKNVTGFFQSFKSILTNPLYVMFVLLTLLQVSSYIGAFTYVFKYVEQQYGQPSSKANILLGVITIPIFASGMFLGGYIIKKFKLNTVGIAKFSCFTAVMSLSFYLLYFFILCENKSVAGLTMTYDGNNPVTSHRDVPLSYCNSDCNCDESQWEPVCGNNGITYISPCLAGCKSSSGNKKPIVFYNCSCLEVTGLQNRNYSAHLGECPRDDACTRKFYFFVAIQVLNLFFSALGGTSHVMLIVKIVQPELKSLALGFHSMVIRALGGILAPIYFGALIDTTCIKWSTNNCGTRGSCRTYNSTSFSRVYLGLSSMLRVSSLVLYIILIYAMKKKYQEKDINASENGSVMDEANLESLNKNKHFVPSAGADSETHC

CN/C(=N/CCSCc1nc[nH]c1C)NC#N [Cimetidine, reference compound]
DPM (14C-TEA uptake by OCT2) [1]: 417.3±44.8 DPM

CC(C)=CCC[C@](C)(O[C@@H]1O[C@H](CO[C@@H]2O[C@H](CO)[C@@H](O)[C@H](O)[C@H]2O)[C@@H](O)[C@H](O)[C@H]1O)[C@H]1CC[C@]2(C)[C@@H]1[C@H](O)C[C@@H]1[C@@]3(C)CC[C@H](O[C@@H]4O[C@H](CO)[C@@H](O)[C@H](O)[C@H]4O[C@@H]4O[C@H](CO)[C@@H](O)[C@H](O)[C@H]4O)C(C)(C)[C@@H]3CC[C@]12C [Ginsenoside Rb1]
IC50 [2]: 2.4 µM

CCCN(CCC)S(=O)(=O)c1ccc(C(=O)O)cc1 [Probenecid, reference compound]
DPM (3H-ES uptake by OAT3) [3]: 1709.3±343.6 DPM

CO[C@H]1/C=C/O[C@@]2(C)Oc3c(C)c(O)c4c(O)c(c(/C=N/N5CCN(C)CC5)c(O)c4c3C2=O)NC(=O)/C(C)=C\C=C\[C@H](C)[C@H](O)[C@@H](C)[C@@H](O)[C@@H](C)[C@H](OC(C)=O)[C@@H]1C [Rifampicin, reference compound]
DPM (3H-EG uptake by OATP1B3) [4]: 769.0±126.5 DPM
DPM (3H-ES uptake by OATP1B1) [5]: 2798.7±891.8 DPM
